According to ChEMBL document CHEMBL1201862, “PubChem BioAssay data set” (2004):
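Results reflect a 48-hour exposure of cells in 96-well plates to compound at five concentrations. Abbreviation: GI50, concentration required for 50% inhibition of growth.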 Activity calls are given as the source filed them. Cut-off read from the data, not from the text of the source: active = GI50 up to about 1.1 µM and inactive = higher.

Key:
Assay in all cases: inhibition of tumour cell growth, NCI panel, 48 h
786-0 = test system: 786-0
A498 = test system: A498
A549 = test system: A549
ACHN = test system: ACHN
BT-549 = test system: BT-549
CAKI-1 = test system: CAKI-1
CCRF-CEM = test system: CCRF-CEM
COLO 205 = test system: COLO 205
DLD-1 = test system: DLD-1
DMS-114 = test system: DMS-114
DMS-273 = test system: DMS-273
DU-145 = test system: DU-145
EKVX = test system: EKVX
HCC 2998 = test system: HCC 2998
HCT-116 = test system: HCT-116
HCT-15 = test system: HCT-15
HL-60 = test system: HL-60
HOP-18 = test system: HOP-18
HOP-62 = test system: HOP-62
HOP-92 = test system: HOP-92
HT-29 = test system: HT-29
Hs-578T = test system: Hs-578T
IGROV-1 = test system: IGROV-1
K562 = test system: K562
KM-20L2 = test system: KM-20L2
KM12 = test system: KM12
LOX IMVI = test system: LOX IMVI
LXFL 529 = test system: LXFL 529
M14 = test system: M14
M19-MEL = test system: M19-MEL
MCF7 = test system: MCF7
MDA-MB-231 = test system: MDA-MB-231
MDA-MB-435 = test system: MDA-MB-435
MDA-N = test system: MDA-N
MOLT-4 = test system: MOLT-4
Malme-3M = test system: Malme-3M
NCI-H226 = test system: NCI-H226
NCI-H23 = test system: NCI-H23
NCI-H460 = test system: NCI-H460
NCI-H522 = test system: NCI-H522
NCI/ADR-RES = test system: NCI/ADR-RES
OVCAR-3 = test system: OVCAR-3
OVCAR-4 = test system: OVCAR-4
OVCAR-5 = test system: OVCAR-5
OVCAR-8 = test system: OVCAR-8
PC-3 = test system: PC-3
RPMI-8226 = test system: RPMI-8226
RXF 393 = test system: RXF 393
SF-268 = test system: SF-268
SF-295 = test system: SF-295
SF-539 = test system: SF-539
SK-MEL-28 = test system: SK-MEL-28
SK-MEL-2 = test system: SK-MEL-2
SK-MEL-5 = test system: SK-MEL-5
SK-OV-3 = test system: SK-OV-3
SN12C = test system: SN12C
SNB-19 = test system: SNB-19
SNB-75 = test system: SNB-75
SNB-78 = test system: SNB-78
SR = test system: SR
SW-620 = test system: SW-620
T47D = test system: T47D
TK-10 = test system: TK-10
U-251 = test system: U-251
UACC-257 = test system: UACC-257
UACC-62 = test system: UACC-62
UO-31 = test system: UO-31
XF498 = test system: XF498

`C=C1C(=O)OC2C(C)C3C=CC(=O)[C@@]3(C)C(OC(=O)/C(C)=C/C)C1[C@@H]2OC(C)=O` (stereo not given in full) was tested, and the GI50 (786-0) was 231 nM (active), the GI50 (A498) was 1490 nM (inactive) and the GI50 (A549) was 1670 nM (inactive). For the same compound, the GI50 (ACHN) was 589 nM (active), the GI50 (BT-549) was 280 nM (active) and the GI50 (CAKI-1) was 553 nM (active). For the same compound, the GI50 (CCRF-CEM) was 220 nM (active), the GI50 (COLO 205) was 333 nM (active) and the GI50 (DLD-1) was 500 nM (active). The GI50 (DMS-114) was 861 nM (active), the GI50 (DMS-273) was 541 nM (active) and the GI50 (DU-145) was 1360 nM (inactive). The GI50 (EKVX) was 551 nM (active), the GI50 (HCC 2998) was 1750 nM (inactive) and the GI50 (HCT-116) was 319 nM (active). The GI50 (HCT-15) was 247 nM, the GI50 (HL-60) was 327 nM (active) and the GI50 (HOP-18) was 1790 nM (inactive). For the same compound, the GI50 (HOP-62) was 1250 nM (inactive), the GI50 (HOP-92) was 551 nM (active) and the GI50 (HT-29) was 486 nM (active). The GI50 (Hs-578T) was 308 nM (active), the GI50 (IGROV-1) was 780 nM (active) and the GI50 (K562) was 374 nM (active). For the same compound, the GI50 (KM-20L2) was 1510 nM (inactive), the GI50 (KM12) was 1460 nM (inactive) and the GI50 (LOX IMVI) was 243 nM (active). For the same compound, the GI50 (LXFL 529) was 359 nM (active), the GI50 (M14) was 673 nM (active) and the GI50 (M19-MEL) was 547 nM (active). The GI50 (MCF7) was 458 nM (active), the GI50 (MDA-MB-231) was 259 nM (active) and the GI50 (MDA-MB-435) was 267 nM (active). For the same compound, the GI50 (MDA-N) was 252 nM (active), the GI50 (MOLT-4) was 334 nM (active) and the GI50 (Malme-3M) was 221 nM (active). For the same compound, the GI50 (NCI-H226) was 1730 nM (inactive), the GI50 (NCI-H23) was 467 nM (active) and the GI50 (NCI-H460) was 300 nM (active). The GI50 (NCI-H522) was 131 nM (active), the GI50 (NCI/ADR-RES) was 237 nM (active) and the GI50 (OVCAR-3) was 260 nM (active). For the same compound, the GI50 (OVCAR-4) was 822 nM (active), the GI50 (OVCAR-5) was 1880 nM (inactive) and the GI50 (OVCAR-8) was 240 nM (active). For the same compound, the GI50 (PC-3) was 522 nM (active), the GI50 (RPMI-8226) was 486 nM (active) and the GI50 (RXF 393) was 215 nM (active). For the same compound, the GI50 (SF-268) was 673 nM (active), the GI50 (SF-295) was 1430 nM (inactive) and the GI50 (SF-539) was 333 nM (active). The GI50 (SK-MEL-28) was 593 nM (active), the GI50 (SK-MEL-2) was 278 nM (active) and the GI50 (SK-MEL-5) was 1460 nM (inactive). For the same compound, the GI50 (SK-OV-3) was 1590 nM (inactive), the GI50 (SN12C) was 468 nM (active) and the GI50 (SNB-19) was 1890 nM (inactive). For the same compound, the GI50 (SNB-75) was 1100 nM (active), the GI50 (SNB-78) was 396 nM (active) and the GI50 (SR) was 168 nM (active). The GI50 (SW-620) was 257 nM (active), the GI50 (T47D) was 336 nM (active) and the GI50 (TK-10) was 452 nM (active). For the same compound, the GI50 (U-251) was 1150 nM (inactive), the GI50 (UACC-257) was 641 nM (active) and the GI50 (UACC-62) was 344 nM (active). The GI50 (UO-31) was 1210 nM (inactive) and the GI50 (XF498) was 1250 nM (inactive).

`COc1nc(OC)nc(Sc2ccc(Sc3ccc(Sc4nc(OC)nc(OC)n4)cc3)cc2)n1` was tested, and the GI50 (786-0) was > 100000 nM (inactive), the GI50 (A498) was > 100000 nM (inactive) and the GI50 (A549) was > 100000 nM (inactive). For the same compound, the GI50 (ACHN) was > 100000 nM (inactive), the GI50 (CAKI-1) was > 100000 nM (inactive) and the GI50 (CCRF-CEM) was > 100000 nM (inactive). The GI50 (COLO 205) was > 100000 nM (inactive), the GI50 (DLD-1) was > 100000 nM (inactive) and the GI50 (DMS-114) was 24100 nM (inactive). For the same compound, the GI50 (DMS-273) was > 100000 nM (inactive), the GI50 (EKVX) was > 100000 nM (inactive) and the GI50 (HCC 2998) was > 100000 nM (inactive). For the same compound, the GI50 (HCT-116) was > 100000 nM (inactive), the GI50 (HCT-15) was greater than 100000 nM and the GI50 (HL-60) was > 100000 nM (inactive). For the same compound, the GI50 (HOP-18) was > 100000 nM (inactive), the GI50 (HOP-92) was > 100000 nM (inactive) and the GI50 (HT-29) was > 100000 nM (inactive). The GI50 (IGROV-1) was > 100000 nM (inactive), the GI50 (K562) was > 100000 nM (inactive) and the GI50 (KM-20L2) was > 100000 nM (inactive). For the same compound, the GI50 (KM12) was > 100000 nM (inactive), the GI50 (LOX IMVI) was > 100000 nM (inactive) and the GI50 (LXFL 529) was > 100000 nM (inactive). The GI50 (M14) was > 100000 nM (inactive), the GI50 (M19-MEL) was > 100000 nM (inactive) and the GI50 (MOLT-4) was > 100000 nM (inactive). The GI50 (Malme-3M) was > 100000 nM (inactive), the GI50 (NCI-H226) was > 100000 nM (inactive) and the GI50 (NCI-H23) was > 100000 nM (inactive). For the same compound, the GI50 (NCI-H460) was > 100000 nM (inactive), the GI50 (NCI-H522) was > 100000 nM (inactive) and the GI50 (OVCAR-3) was > 100000 nM (inactive). The GI50 (OVCAR-4) was > 100000 nM (inactive), the GI50 (OVCAR-5) was > 100000 nM (inactive) and the GI50 (OVCAR-8) was > 100000 nM (inactive). The GI50 (RPMI-8226) was > 100000 nM (inactive), the GI50 (RXF 393) was > 100000 nM (inactive) and the GI50 (SF-268) was > 100000 nM (inactive). For the same compound, the GI50 (SF-295) was > 100000 nM (inactive), the GI50 (SF-539) was > 100000 nM (inactive) and the GI50 (SK-MEL-28) was > 100000 nM (inactive). The GI50 (SK-MEL-2) was > 100000 nM (inactive), the GI50 (SK-MEL-5) was > 100000 nM (inactive) and the GI50 (SK-OV-3) was > 100000 nM (inactive). For the same compound, the GI50 (SN12C) was > 100000 nM (inactive), the GI50 (SNB-19) was > 100000 nM (inactive) and the GI50 (SNB-75) was > 100000 nM (inactive). For the same compound, the GI50 (SNB-78) was > 100000 nM (inactive), the GI50 (SR) was 7520 nM (inactive) and the GI50 (SW-620) was > 100000 nM (inactive). For the same compound, the GI50 (TK-10) was > 100000 nM (inactive), the GI50 (U-251) was > 100000 nM (inactive) and the GI50 (UACC-257) was > 100000 nM (inactive). The GI50 (UACC-62) was > 100000 nM (inactive), the GI50 (UO-31) was > 100000 nM (inactive) and the GI50 (XF498) was > 100000 nM (inactive).
